Legend:
vCor.4U cells as hEHT = assay: 3D human engineered heart tissue (hEHT) challenged with menadione; assay type: cell-based
Method: Fibrin-based hEHTs were generated between flexible silicone posts as described ([Breckwoldt et al., 2017], [Hansen et al., 2010]), with minor modifications. 1.8 mL well^-1 of 2% agarose in PBS was pipetted into 24-well plates, Teflon spacers (EHT Technologies) were placed inside each well as a casting mold, and the agarose was left to set for 15 min. The spacers were removed from each well, and a pair of polydimethylsiloxane posts was inserted from above (EHT Technologies: Young’s modulus […], length 10 mm, radius, 0.5 mm). VCor.4U cells (4 × 10^6) were resuspended in 400 μL of master mix (340 μL DMEM (Biochrom), 10% heat-inactivated fetal calf serum (GIBCO), 2 mM glutamine (Life Technnologies), 1% penicillin/streptomycin (GIBCO); 60 μL 2x DMEM (GIBCO), 20% horse serum (GIBCO), 2% penicillin/streptomycin). Bovine fibrinogen (Sigma) was added (10 μL: 200 mg mL^-1, 95 μg mL^-1 aprotinin (Sigma), 0.9% NaCl), and 100 μL aliquots were transferred to PCR tubes containing 3 μL of 100 U ml^-1 thrombin (Biopur) in 60% PBS. Cell suspensions then were immediately transferred to the agarose casting molds. After 90 min to allow solidification, 300 μL well^-1 of EHT medium was added (DMEM, 10% horse serum, 0.1% human insulin (Sigma), 0.1% aprotinin), to hydrate the gels for a further 50 min. The hEHTs were then transferred to fresh 24-well plates with 1.5 mL well^-1 of EHT medium, which was replaced every Monday, Wednesday, and Friday for 12 d. Auxotonic force measurements were performed daily by optical tracking ([Hansen et al., 2010]) and calculated on the basis of post deflection distance (δ), post length (L), post radius (R), and the elastic modulus (E), using the formula F = 3πER^4δ4L^-3 ([Schaaf et al., 2011]) and the indicated post parameters. Beating rate and force generation increased between d 5 and 10 and were stable for at least 7 d thereafter. On day 12, the hEHTs were challenged for 24 hr with menadione, in the absence or presence of DMX-5804. Medium, including DMX-5804, was replenished daily. […]

Cerep Safety 44 panel = Cerep Safety 44 panel (SafetyScreen44); assay type: binding; settings: except metallothionein 3
vCor.4U cells = assay: Mitochondrial function (Seahorse XFe24, OCR and ECAR); assay type: cell-based, human; settings: menadione 15 μM, 2 h
Method: Mitochondrial function in hiPSC-CMs was determined using a Seahorse XFe24 Analyzer. vCor.4U cells (60,000 well^-1) were transferred to 0.1% gelatin-coated XF24 plates and maintained for 5 d, as described above. On day 6, DMX-5804 was added 45 min prior to challenge with menadione for 2 h. The medium was replaced 1 hr before the assay, using bicarbonate-free Seahorse assay medium (8.3 g L^-1 DMEM Base (Sigma-Aldrich), 10 mM glucose, 2 mM L-alanyl-L-glutamine dipeptide (Glutamax-1, GIBCO), 1 mM sodium pyruvate (GIBCO), pH 7.4). Cells were maintained at 37°C without supplemental CO2 starting 1 hr before the assay (IL10 incubator, VWR). For each state measured, three assay cycles were performed (4 min mixing, 2 min wait, and 2 min measurement periods, with readings every 15 s). The basal oxygen consumption rate (OCR) and extracellular acidification rate (ECAR) were determined, followed by sequential injection of 1 μM oligomycin A (Abcam) to inhibit ATP synthase, 0.5 μM […] (FCCP; Abcam) to uncouple oxidative phosphorylation, and 1 μM antimycin A/rotenone (Sigma, Abcam) to inhibit mitochondrial complex III and I. For each condition, 12 wells were tested, comprising 4 independent experiments.

endogenous MAP4K4 = target: T1, endogenous MAP4K4 (Homo sapiens, UniProt O95819); assay: In-cell MAP4K4 activity, immune complex kinase assay in HEK293T cells; assay type: cell-based; settings: HEK-293T, 1 h after treatment
T1 construct: endogenous in cells; host or cells: HEK293T
Method: MAP4K4 was precipitated using M2 antibody to the FLAG epitope, or antibody to endogenous MAP4K4, and protein G-Sepharose. Precipitates were washed twice in lysis buffer, twice with 500 mM LiCl, 100 mM Tris-HCl, pH 7.6, 0.1% Triton X-100, twice with kinase buffer (20 mM MOPS, pH 7.6, 2 mM EGTA, 10 mM MgCl2, 1 mM dithiothreitol, 0.1% Triton X-100, 1 mM Na3VO4), and were then mixed with 10 μg of myelin basic protein (Invitrogen) as substrate, 15 μM ATP, and 10 μCi [γ-^32P]ATP in […] of kinase buffer for 30 min at 30°C ([Yao et al., 1999]). His-MKK6 was used as the substrate for TAK1 ([Zhang et al., 2000]). Reaction mixtures were resolved by SDS-polyacrylamide gel electrophoresis, then were analyzed by western blotting and autoradiography.

iCell cardiomyocytes = assay: Human cardiac muscle cell death, DRAQ7 uptake (high-content); assay type: cell-based; settings: H2O2, micromolar concentrations
Method: iCell cardiomyocytes were thawed, transferred to Plating Medium, counted using a Vi-CELL XR cell viability analyzer (Beckman Coulter), and seeded into 24-well plates for RNA collection (60,000 cells well^-1; Greiner) or μClear half-area 96-well plates for gene silencing (10,000 cells well^-1; Greiner). Plates were coated with 10 μg ml^-1 collagen type I (BD Biosciences). Cells were cultured in iCell Cardiomyocytes Plating Medium for 2 d and in Maintenance Medium thereafter. For compound dose-response comparisons, the cells were deposited in Plating Medium at 10,000 cells well^-1 in 0.1% (w/v) gelatin-coated 384-well white Greiner plates and were cultured as above for 8 d before treatment. […]
To measure loss of membrane integrity, iCell hiPSC-CMs were co-stained for 15 min at 37°C with 0.3 μM DRAQ7 (Biostatus), a cell-impermeable dye, and with 0.8 μM Hoescht 33342 (Molecular Probes), as the membrane-permeable dye. Dyes were removed and the nuclear fluorescence scored (typically, 15,000-20,000 cells well^-1) using a Cellomics ArrayScan VTI High Content Screening platform. The line harbors a cardiomyocyte-specific Myh6-driven reporter gene for monomeric red fluorescent protein (RFP), enabling cell death to be scored exclusively in the myocyte population. Successfully transduced cells were identified on the basis of TurboGFP fluorescence. […]

T1 sequence (O95819 whole entry): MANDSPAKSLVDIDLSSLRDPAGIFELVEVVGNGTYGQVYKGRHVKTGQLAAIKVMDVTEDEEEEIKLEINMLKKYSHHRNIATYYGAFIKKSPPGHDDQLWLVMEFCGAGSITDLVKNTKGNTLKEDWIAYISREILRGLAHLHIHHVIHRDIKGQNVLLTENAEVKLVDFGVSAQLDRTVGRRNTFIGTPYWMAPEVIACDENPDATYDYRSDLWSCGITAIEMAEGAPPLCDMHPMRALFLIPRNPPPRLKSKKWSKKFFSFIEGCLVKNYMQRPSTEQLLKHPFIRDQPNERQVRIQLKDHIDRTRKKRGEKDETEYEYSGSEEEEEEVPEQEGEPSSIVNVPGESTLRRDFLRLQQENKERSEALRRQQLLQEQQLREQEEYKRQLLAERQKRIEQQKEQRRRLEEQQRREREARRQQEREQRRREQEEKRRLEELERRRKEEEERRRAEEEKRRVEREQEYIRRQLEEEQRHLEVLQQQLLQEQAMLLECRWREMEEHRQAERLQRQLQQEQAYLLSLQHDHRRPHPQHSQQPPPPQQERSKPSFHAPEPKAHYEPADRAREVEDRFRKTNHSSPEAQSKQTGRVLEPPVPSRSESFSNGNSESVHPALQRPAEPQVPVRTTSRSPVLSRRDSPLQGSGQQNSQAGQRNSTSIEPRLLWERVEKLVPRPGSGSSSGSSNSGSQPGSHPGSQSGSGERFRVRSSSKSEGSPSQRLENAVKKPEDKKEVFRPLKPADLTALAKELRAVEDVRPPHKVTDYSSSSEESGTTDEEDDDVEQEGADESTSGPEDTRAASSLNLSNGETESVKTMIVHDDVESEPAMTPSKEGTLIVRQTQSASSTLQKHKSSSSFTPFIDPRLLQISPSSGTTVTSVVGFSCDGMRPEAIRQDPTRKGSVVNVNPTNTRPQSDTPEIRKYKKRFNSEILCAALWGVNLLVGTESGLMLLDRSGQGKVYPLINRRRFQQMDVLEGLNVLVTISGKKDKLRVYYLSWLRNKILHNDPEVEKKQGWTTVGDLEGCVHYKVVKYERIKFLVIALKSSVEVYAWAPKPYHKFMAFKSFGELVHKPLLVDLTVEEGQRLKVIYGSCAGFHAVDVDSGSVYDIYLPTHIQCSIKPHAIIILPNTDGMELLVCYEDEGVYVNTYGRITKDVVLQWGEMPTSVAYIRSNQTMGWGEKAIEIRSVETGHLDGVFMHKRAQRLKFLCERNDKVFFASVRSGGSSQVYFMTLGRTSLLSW

COCCOc1ccc(-c2cn(-c3ccccc3)c3nc[nH]c(=O)c23)cc1 [DMX-5804, 5-[4-(2-methoxy-ethoxy)-phenyl]-7-phenyl-3,7-dihydro-pyrrolo[2,3-d]pyrimidin-4-one]
cell death from menadione in hEHT (vCor.4U cells as hEHT; 10 μM, first 24 h): suppressed
adverse effect on cardiomyocyte viability, rhythmicity, calcium handling, mitochondrial function, force generation (vCor.4U cells as hEHT; 2D culture or hEHT): no adverse effect
rescue of contractile function in hEHT (vCor.4U cells as hEHT; 3 or 10 μM, 60 min and 24 h, not later): virtually complete
Cerep Safety 44 panel (Cerep Safety 44 panel): no off-target effect
extracellular acidification rate (vCor.4U cells; 10 μM): partially rescued
improvement of residual maximum oxidative capacity (vCor.4U cells; 10 μM): 5 fold
maximum oxidative capacity at lesser concentrations (vCor.4U cells; below 10 μM): No significant benefits

Oc1ncnc2c1c(-c1ccccc1)cn2-c1ccccc1 [F1386-0303, 5,7-diphenyl-7H-pyrrolo[2,3-d]pyrimidin-4-ol]
inhibition at 10 µM (endogenous MAP4K4): 70%
suppression of human cardiac muscle cell death (DRAQ7 uptake) (iCell cardiomyocytes): highly protective

— PMC6458995, “MAP4K4 Inhibition Promotes Survival of Human Stem Cell-Derived Cardiomyocytes and Reduces Infarct Size In Vivo” (Cell Stem Cell, 2019)
